Experimental data reported in ChEMBL document CHEMBL3137667, “[Drug-induced liver injury; fourteenth updated edition of the bibliographic database of liver injuries and related drugs]” (Gastroenterol Clin Biol, 2004).

How the values were obtained:
[1] = human, serum
[2] = human
[3] = Highest frequency of acute liver toxicity observed during clinical trials, expressed as a percentage. [column '% AIGUE' in source]; settings: human
[4] = human; remark: listed apart in the source
[5] = human; remark: listed apart in the source
[6] = human; remark: listed apart in the source
[7] = human; remark: listed apart in the source
[8] = Highest frequency of moderate liver toxicity observed during clinical trials, expressed as a percentage. [column '% BIOL' in source]; settings: human
[9] = human; remark: listed apart in the source
[10] = human, serum, 4383 h
[11] = human; remark: listed apart in the source
[12] = human, serum; remark: listed apart in the source
[13] = human; remark: listed apart in the source
[14] = human; remark: listed apart in the source
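Wherever Hepatotoxicity (association with vascular disease) is given: count of indexed literature references reporting vascular liver injury in humans, e.g. peliosis hepatitis, hepatic veno-occlusive disease or Budd-Chiari syndrome.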
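Wherever Hepatotoxicity (benign tumour) is given: value is a count of indexed literature references citing a benign tumour confirmed by histopathology.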
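Wherever Hepatotoxicity (choleostasis) is given: human cholestatic liver injury, shown by histopathology or by peak ALT or AST elevation over alkaline phosphatase ratio below 2, value counts indexed literature reports.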
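Wherever Hepatotoxicity (chronic liver disease) is given: chronic liver injury confirmed by histopathology or persistently raised serum aminotransferase activity beyond 6 months, value given as the count of indexed literature references.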
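Wherever Hepatotoxicity (cirrhosis) is given: value is a count of indexed literature references reporting cirrhosis confirmed by histopathology.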
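Wherever Hepatotoxicity (cytolytic) is given: human cytolytic liver injury, shown by histopathology or by a ratio above 5 of peak ALT or AST elevation to alkaline phosphatase elevation, value counts indexed references.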
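Wherever Hepatotoxicity (granulomatous hepatitis) is given: value is a count of indexed literature references reporting granulomatous liver disease confirmed by histopathology.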
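Wherever Hepatotoxicity (malignant tumour) is given: malignant tumour confirmed by histopathology, value gives the count of indexed literature references reporting it.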
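Wherever Hepatotoxicity (severe hepatitis) is given: human clinical data: severe hepatitis, meaning potentially life-threatening liver failure or clinically observed cases, the value counts how many indexed literature references report it.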
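Wherever Hepatotoxicity (steatosis) is given: steatosis confirmed by histopathology, value is the count of indexed references.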

Row | Molecule | Hepatotoxicity (acute) [1] | Hepatotoxicity (malignant tumour) [2] | Hepatotoxicity (acute) ([3]; Liver) [%] | Hepatotoxicity (cirrhosis) [4] | Hepatotoxicity (benign tumour) [5] | Hepatotoxicity (choleostasis) [6] | Hepatotoxicity (association with vascular disease) [7] | Hepatotoxicity (moderate) ([8]; Liver) [%] | Hepatotoxicity (cytolytic) [9] | Hepatotoxicity (chronic liver disease) [10] | Hepatotoxicity (granulomatous hepatitis) [11] | Hepatotoxicity (moderate) [12] | Hepatotoxicity (severe hepatitis) ([13]; Liver) | Hepatotoxicity (steatosis) [14] | Hepatotoxicity (acute) [3] [%] | Hepatotoxicity (moderate) [8] [%] | Hepatotoxicity (severe hepatitis) [13]
1 | CCOc1cc(CC(=O)N[C@@H](CC(C)C)c2ccccc2N2CCCCC2)ccc1C(=O)O [REPAGLINIDE] | 0 | 0 | 0 | 0 | 0 | 0 | 0 | 1.5 | 0 | 0 | 0 | 1 | 0 | 0 |  |  | 
2 | NC(=O)c1cc[n+](CC2=C(C(=O)O)N3C(=O)[C@@H](NC(=O)[C@@H](c4ccccc4)S(=O)(=O)[O-])[C@H]3SC2)cc1 [CEFSULODIN] | 0 | 0 |  | 0 | 0 | 0 | 0 |  | 0 | 0 | 0 | 4 |  | 0 | 0 | 18.2 | 0
3 | COc1ccc(CCN(C)CCCC(C#N)(c2cc(OC)c(OC)c(OC)c2)C(C)C)cc1OC (stereo not given) [GALLOPAMIL] | 0 | 0 |  | 0 | 0 | 0 | 0 |  | 0 | 0 | 0 | 1 |  | 0 | 0 | 4 | 0
4 | COCC1=C(C(=O)OC(C)OC(=O)OC(C)C)N2C(=O)[C@@H](NC(=O)/C(=N\OC)c3csc(N)n3)[C@H]2SC1 (stereo not given in full) [CEFPODOXIME PROXETIL] | 0 | 0 |  | 0 | 0 | 0 | 0 |  | 0 | 0 | 0 | 13 |  | 0 | 0 | 7.1 | 0
5 | C[C@@H](O)[C@H]1C(=O)N2C(C(=O)O)=C([C@H]3CCCO3)S[C@H]12 [FAROPENEM] | 0 | 0 |  | 0 | 0 | 0 | 0 |  | 0 | 0 | 0 | 39 |  | 0 | 0 | 20 | 0
6 | Oc1ccc(Cl)cc1Cc1cc(Cl)ccc1O [DICHLOROPHEN] | 2 | 0 |  | 0 | 0 | 1 | 0 |  | 2 | 0 | 0 | 0 |  | 0 | 0 | 0 | 0
7 | CO[C@H]1O[C@@H]2O[C@@]3(C)CC[C@H]4[C@H](C)CC[C@@H]([C@H]1C)[C@@]24OO3 | 0 | 0 |  | 0 | 0 | 0 | 0 |  | 0 | 0 | 0 | 1 |  | 0 | 0 | 17 | 0
8 | O=C(O)c1ccccc1C(=O)Nc1ccc(S(=O)(=O)Nc2nccs2)cc1 [PHTHALYLSULFATHIAZOLE] | 1 | 0 |  | 0 | 0 | 0 | 0 |  | 0 | 0 | 0 | 0 |  | 0 | 0 | 0 | 0
9 | [H]/N=C(\N/C(=N/[H])NCCCCCCNC(=N)NC(=N)Nc1ccc(Cl)cc1)Nc1ccc(Cl)cc1 [CHLORHEXIDINE] | 1 | 0 |  | 0 | 0 | 0 | 0 |  | 0 | 0 | 0 | 0 |  | 0 | 0 | 0 | 0
10 | CCCN1C[C@H](CSC)C[C@@H]2c3cccc4[nH]cc(c34)C[C@H]21 [PERGOLIDE] | 0 | 0 |  | 0 | 0 | 0 | 0 |  | 0 | 0 | 0 | 3 |  | 0 | 0 | 1.9 | 0
11 | CCC(C)C(C)(COC(N)=O)COC(N)=O (stereo not given) [MEBUTAMATE] | 1 | 0 |  | 0 | 0 | 1 | 0 |  | 0 | 0 | 0 | 0 |  | 0 | 0 | 0 | 0
12 | C#C[C@]1(O)CC[C@H]2[C@@H]3CCC4=CCCC[C@@H]4[C@H]3CC[C@@]21C [LYNESTRENOL] | 3 | 0 |  | 0 | 0 | 3 | 0 |  | 0 | 0 | 0 | 0 |  | 0 | 0 | 0 | 0
13 | O=CN(O)CCCP(=O)(O)O [FOSMIDOMYCIN] | 0 | 0 |  | 0 | 0 | 0 | 0 |  | 0 | 0 | 0 | 1 |  | 0 | 0 | 7.7 | 0
14 | GENTAMICIN | 0 | 0 |  | 0 | 0 | 0 | 0 |  | 0 | 0 | 0 | 7 |  | 0 | 0 | 14.3 | 0
15 | CC1CN(c2cc3c(cc2F)c(=O)c(C(=O)O)cn3-c2ccc(F)cc2F)CCN1 (stereo not given) [TEMAFLOXACIN] | 0 | 0 |  | 0 | 0 | 0 | 0 |  | 0 | 0 | 0 | 33 |  | 0 | 0 | 44.4 | 0
